The source of these data is PubChem BioAssay AID489027 (Sanford-Burnham Center for Chemical Genomics, 2010).

The test addresses UPR counterscreen luciferase reporter, luminescence. Put plainly: luciferase reporter activation, UPR counterscreen line – cell-based, luminescence, counter-screen for adaptive UPR activator project, dose response (AID 489027). For orientation: Reporter assays use an easily measured gene product as a stand-in for the process of interest.

Structures are written as SMILES. Activity calls are given as the source filed them. How the calls were made is not given here. Where only a bound is given, the exact number is not on record here.

As a reminder, the EC50 is the concentration giving half of the maximal effect. In the case of `Cc1ccc(C(C(=O)NCc2ccco2)N(C(=O)CNC(=O)c2cccs2)c2c(C)cc(C)cc2C)cc1` (centres undefined), the EC50 entry is “inactive”.
In the case of `CCOC(=O)c1sc(-c2ccccc2)cc1NC(=O)Nc1ccc([N+](=O)[O-])cc1` it was 16.2 µM; in that of `NCCOc1ccc(C23CC4CC(CC(C4)C2)C3)cc1`, 8.74 µM; in that of `COc1ccc2nc(/C(C#N)=C\c3ccc(Oc4ccc([N+](=O)[O-])cn4)cc3)[nH]c2c1`, > 80 µM (inactive).
As to `c1ccc(Oc2c3ccccc3nc3ccccc23)cc1`, the EC50 entry is “inactive”.
In the case of `Cc1ccc(C(=O)Nc2cc(S(=O)(=O)N3CCOCC3)ccc2N2CCCC2)cc1`, the EC50 result is “inactive”.
On to `COc1ccc(-c2csc(NC(=S)NC(=O)/C=C/c3ccccc3)n2)cc1Br`, for which the EC50 result was “inactive”.
In the case of `NC(=S)N/N=C/c1ccc(C23CC4CC(CC(C4)C2)C3)cc1` it was 13.8 µM; in that of `CCc1ccc(-c2nc(CN3CCC(C(=O)NCCN(CC)c4ccccc4)CC3)c(C)o2)cc1`, > 80 µM (inactive); in that of `Cc1cc(C)nc(SCc2ccc(C(=O)N/N=C/c3cccc(O)c3O)cc2)n1`, 6.43 µM.
As for `CCOc1cc(/C=N/N=C(\N)c2nonc2N)cc(Br)c1OCc1cccc2ccccc12`, the EC50 was > 80 µM (inactive).
In the case of `O=C(Oc1ccccc1/C=C\C(=O)c1cc2ccccc2o1)c1cccc(F)c1` it was 8.33 µM.
On to `c1cc(SC2CCCCC2)cc(-c2nc3cnccn3c2NC2CCCCC2)c1`, for which the EC50 was 12.6 µM.
Turning to `Cc1cccc(NC(=O)/C(C#N)=C/c2cn(CC(=O)NCc3ccco3)c3ccccc23)c1C`, the EC50 is > 80 µM (inactive).
On to `CN1Cc2c(N3CCOCC3)nc3sc(C(=O)c4ccc(Br)cc4)c(N)c3c2CC1(C)C`, for which the EC50 was 18.7 µM.
Then `COc1ccc(OCc2n(CC(=O)OC3CC(C)CCC3C(C)C)c3ccccc3[n+]2C)cc1` (centres undefined), with > 80 µM (inactive); and `O=C(CSc1nc2ccccc2c(=O)n1-c1ccccc1)N1CCc2ccccc21`, with “inactive”.
As to `CCc1cc2c(=O)c(-c3cnn(-c4ccccc4)c3)c(C)oc2cc1OCC(=O)Nc1cccc(C)c1`, the 50% effective concentration (EC50) was 11.5 µM.
In the case of `Cc1ccc(C(=O)C(C(=O)/C=C/c2ccccc2)=C2SCCCS2)cc1` it was 11.9 µM; in that of `Cc1ccc(N2CCN(c3ccc(NCc4nc5ccccc5n4C)cc3)CC2)cc1`, “inactive”; in that of `CCCCC1CCC(C(=O)N(CC(C)C)c2c(N)n(CCCC)c(=O)[nH]c2=O)CC1` (centres undefined), > 80 µM (inactive).
Turning to `O=C(Nc1ccc(SC(F)F)cc1)c1cc(-c2ccncc2)nc2ccccc12`, the EC50 is > 80 µM (inactive).
Regarding `Cc1cc(NC(=O)CSc2nc3cc(Cl)ccc3c(=O)n2Cc2ccco2)no1`, the EC50 was > 80 µM (inactive).
For the compound `COc1ccccc1NC(=O)c1cc2c(CO)cnc(C)c2oc1=Nc1ccccc1`, the EC50 was 13.3 µM.
In the case of `COC(=O)c1sccc1NC(=O)c1cc(-c2cccc(C)c2)nc2ccccc12` it was > 80 µM (inactive); in that of `CC1(C)CC(=O)C(C=Nc2ccc(C(=O)c3ccccc3)cc2N=CC2=C(O)CC(C)(C)CC2=O)=C(O)C1`, 9.78 µM.
Then `Cc1ccccc1NC(=O)c1ccc(N/N=C/c2ccccc2O)c([N+](=O)[O-])c1`, with 7.98 µM; and `O=C(C[n+]1ccc(-c2cc(C(=O)Nc3cccc(C(F)(F)F)c3)c3ccccc3n2)cc1)c1cccc([N+](=O)[O-])c1`, with 16.8 µM; and `CC1=CC(C)[C@H](/C=N/n2c(=O)[nH]c3c([nH]c4ccc(Br)cc43)c2=O)C(C)C1` (some centres undefined), with “inactive”.
In the case of `N#Cc1cc2c(nc1SCC(=O)Nc1sc3c(c1C#N)CCC3)CCCC2` it was “inactive”; in that of `CC(C)(C)c1ccc(C(=O)Nc2ccc(O)c3c(=O)cc(-c4cccc(Cl)c4)oc23)cc1`, > 80 µM (inactive); in that of `COc1ccc(OC)c(-c2nnc3n2N=C(c2ccc(OC)c(OC)c2)CS3)c1`, > 80 µM (inactive).
Turning to `Cc1ccc(Nc2nc(NCCO)c3ccccc3n2)cc1C`, the EC50 was > 80 µM (inactive).
`CCC(=O)Nc1ccc(NC(=O)CSc2nc3cc4c(cc3cc2C)CCC4)cc1`: the EC50 is > 80 µM (inactive).
In the case of `COc1ccc2c(c1)NC(c1cc(Cl)cc(Cl)c1O)c1cccn1-2` (centres undefined) it was “inactive”; in that of `NS(=O)(=O)c1ccc(N/N=C/c2cn(-c3ccccc3)nc2-c2ccccc2)c([N+](=O)[O-])c1`, 7.34 µM.
For `Cc1ccc(Cc2cnc(NC(=O)/C(C#N)=C/c3ccc(-c4ccc([N+](=O)[O-])cc4)o3)s2)cc1`, the concentration giving a half-maximal response (EC50) was 11.3 µM.
Regarding `Cc1ccc(Nc2nc3ccc(Cl)cc3n3cnnc23)cc1F`, the EC50 entry is “inactive”.
As to `COc1ccc(CCn2c(C3CCCCC3)nc3c(c(=O)c4ccccc4n3C)c2=O)cc1`, the EC50 is > 80 µM (inactive).
In the case of `CC(=O)c1cccc(N=Cc2c(O)c3ccccc3oc2=O)c1`, the EC50 is 7.69 µM.
As to `CCCc1nc2c(c(=O)c3ccccc3n2C)c(=O)n1C1CCCCCC1`, the EC50 was > 80 µM (inactive).
Then `COCc1cc(C)nc(OCC(=O)N/N=C/c2ccc(-c3cc([N+](=O)[O-])ccc3Cl)o2)c1C#N`, with 13.6 µM; and `CN(C)CC/C=C1\c2ccc(F)cc2Sc2cc(F)c(Cl)cc21`, with > 80 µM (inactive).
With `Cc1cc(N2CCN(c3nc(-c4ccc([N+](=O)[O-])cc4)cs3)CC2)c2ccccc2n1`, the EC50 was 15.2 µM.
Turning to `Cc1ccc2c(=O)[nH]c(Nc3nc(C)cc(-c4ccccc4)n3)nc2c1`, the EC50 was > 80 µM (inactive).
`CC(C)C(=O)N(c1cc2sc(=O)oc2c2ccccc12)S(=O)(=O)c1cccs1`: the EC50 was 16.3 µM.
Turning to `CC1=Nc2ccccc2/C1=C\c1sc(Nc2ccc(C)cc2)nc1O`, the concentration giving a half-maximal response (EC50) was 17.3 µM.
Consider `CC(C)c1ccc(/C=C/C(=O)Nc2nc3ccc([N+](=O)[O-])cc3s2)cc1`, for which the EC50 result was “inactive”.
As to `CC(=O)Oc1ccc(-c2ccc(C(=O)OCC(=O)N(C)CC(=O)Nc3ccccc3Cl)cc2)cc1`, the half-maximal effective concentration (EC50) is 3.02 µM.
Regarding `Cc1nc(SCC(=O)Nc2ccc(F)cc2)c(C#N)c(C)c1CC(=O)c1ccc(Br)cc1`, the EC50 is > 80 µM (inactive).
In the case of `CCOc1ccc(-c2nnc(SCC(=O)Nc3ccc4c(c3)c3ccccc3n4CC)n2N)cc1`, the EC50 was 14.6 µM.
In the case of `CCC(C)(C)C1CCC2(CC1)NC(=O)N(CC(=O)N1CCN(S(=O)(=O)c3cc(C)ccc3C)CC1)C2=O` (centres undefined), the EC50 is 19.3 µM.
In the case of `Cc1cnc(NC(=O)c2cc(S(=O)(=O)N(C)C)ccc2N2CCCC2)s1` it was 4.67 µM; in that of `O=C(C[C@H]1C[C@H](C(=O)N2CCCCC2)[C@@]2(CCc3ccccc3)c3[nH]c4ccc(Cl)cc4c3CCN2C1=O)NCCC1=CCCCC1`, “inactive”.
Consider `O=C(Nc1ccc(Oc2ccc(NC(=O)Nc3ccccc3Cl)cc2)cc1)Nc1ccccc1Cl`, for which the EC50 is > 80 µM (inactive).
For `COc1cc2[nH]c3c(N4CCN(c5ccc(Cl)cc5)CC4)ncnc3c2cc1OC`, the EC50 is > 80 µM (inactive).
Turning to `COc1cccc(/C=N/Nc2ccc([N+](=O)[O-])cn2)c1O`, the EC50 was > 80 µM (inactive).
As for `O=[N+]([O-])c1cc(-c2ccc(/C=N/c3nc4ccccn4c3-c3ccco3)o2)ccc1Cl`, the EC50 was > 80 µM (inactive).
For `O=C(CSc1nc2ccc(Nc3nc(N4CCOCC4)nc(N4CCOCC4)n3)cc2s1)Nc1ccccc1F`, the EC50 is > 80 µM (inactive).
